This note sets out measurements from PMC3478562 (Biochemical pharmacology, 2011).

Assay [1] concerns Klebsiella pneumoniae 1339. Description: Antimicrobial activity spectrum MIC. In kind it is cell-based.
In assay [2] the test system is Staphylococcus epidermidis 831. Description: Antimicrobial activity spectrum MIC. In kind it is cell-based.
Another assay deals with Proteus mirabilis 1360. The assay is described as follows: Antimicrobial activity spectrum MIC. In kind it is cell-based.
Assay [3] relates to Pseudomonas aeruginosa 1380. The assay is described as follows: Antimicrobial activity spectrum MIC. In kind it is cell-based.
Assay [4] deals with Streptococcus pyogenes 712. The assay is described as follows: Antimicrobial activity spectrum MIC. Format: cell-based.
Assay [5] relates to Streptococcus pneumoniae 1195. Description: Antimicrobial activity spectrum MIC. In kind it is cell-based.
The test system of a further assay is Escherichia coli 102. Description: Antimicrobial activity spectrum MIC. In kind it is cell-based.
Another assay has as its system Enterococcus faecium 800. Description: Antimicrobial activity spectrum MIC. Format: cell-based.
In assay [6] the test system is Enterococcus faecalis 101. The assay is described as follows: Antimicrobial activity spectrum MIC. In kind it is cell-based.
Assay [7] has as its system Escherichia coli 120 (acrAB efflux pump deletion). Description: microbe, parasite or virus in culture. Format: cell-based.
The next assay has as its system Candida albicans 2000. The assay is described as follows: Antimicrobial activity spectrum MIC. Format: cell-based.
Another assay has as its system Aspergillus niger 624. Description: Antimicrobial activity spectrum MIC. In kind it is cell-based.
A further assay relates to S. aureus USA 300. Description: MIC in wild type and Alr overexpressing strains. Conditions: Staphylococcus aureus, USA300.
The subject of assay [8] is Staphylococcus aureus FDA 209. The assay is described as follows: S. aureus MIC, broth microdilution. Conditions: FDA209. (In general: Dilution methods test growth across graded concentrations, often in twofold steps.)
The target in assay [9] is T1, Alr (Staphylococcus aureus, UniProt Q6GF03). Description: Inhibitor reversibility: pre-incubation and dialysis. In kind it is biochemical. Conditions: pre-incubated 30 minutes, dialyzed for 16 hours.
Assay [10] relates to Staphylococcus aureus PCI 1158. Description: S. aureus MIC, broth microdilution. Conditions: PCI1158.
The subject of assay [11] is Staphylococcus aureus HFH-30032. The assay is described as follows: S. aureus MIC, broth microdilution. To be noted: HFH30032.
The subject of assay [12] is S. aureus N315-alr (Alr overexpressing). Description: MIC in wild type and Alr overexpressing strains. Conditions: Staphylococcus aureus.
Assay [13] concerns S. aureus USA300-alr (Alr overexpressing). Description: MIC in wild type and Alr overexpressing strains. Conditions: Staphylococcus aureus.
Assay [14] deals with Staphylococcus aureus HFH-30522. Description: S. aureus MIC, broth microdilution. To be noted: HFH30522.
In assay [15] the test system is Staphylococcus aureus PCI 124. The assay is described as follows: S. aureus MIC, broth microdilution. Conditions: PCI124.
Assay [16] concerns Staphylococcus aureus HFH-30364. Description: S. aureus MIC, broth microdilution. To be noted: HFH30364.
Assay [17] relates to Staphylococcus aureus HFH-29568. Description: S. aureus MIC, broth microdilution. To be noted: HFH29568.
The test system of the next assay is S. aureus N315. The assay is described as follows: MIC in wild type and Alr overexpressing strains. To be noted: Staphylococcus aureus.
Assay [18] deals with Staphylococcus aureus 328. Description: S. aureus MIC, broth microdilution.
Assay [19] deals with T1, Alr. Description: Inhibitor reversibility: IC50 after pre-incubation with the enzyme. In kind it is biochemical. To be noted: pre-incubation 30 minutes vs 6 hours (16 hours).

Values after ≈ are worked out from the molar mass of the structure shown.

T1 sequence (Q6GF03 whole entry): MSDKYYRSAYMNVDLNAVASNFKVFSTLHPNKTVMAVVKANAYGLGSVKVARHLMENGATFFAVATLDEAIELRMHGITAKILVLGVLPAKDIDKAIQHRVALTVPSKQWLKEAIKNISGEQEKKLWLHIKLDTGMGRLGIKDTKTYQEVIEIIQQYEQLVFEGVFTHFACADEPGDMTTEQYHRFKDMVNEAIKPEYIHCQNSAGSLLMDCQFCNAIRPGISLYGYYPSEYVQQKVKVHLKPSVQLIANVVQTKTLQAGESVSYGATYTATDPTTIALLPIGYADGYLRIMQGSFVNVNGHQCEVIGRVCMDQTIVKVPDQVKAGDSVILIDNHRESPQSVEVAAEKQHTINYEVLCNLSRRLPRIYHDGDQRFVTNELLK

Consider `C[C@@H]1[C@H](O)[C@@H](C)/C=C/C=C/C=C/C=C/C=C/C=C/C=C/[C@H](O[C@@H]2O[C@H](C)[C@@H](O)[C@H](N)[C@@H]2O)C[C@@H]2O[C@](O)(C[C@@H](O)C[C@@H](O)[C@H](O)CC[C@@H](O)C[C@@H](O)CC(=O)O[C@H]1C)C[C@H](O)[C@H]2C(=O)O` [AMPB, Amphotericin B], for which the MIC (in assay [1]; in [2]; in the assay with Proteus mirabilis 1360; in assay [3]; in assay [4]; in [5]) was above 64 µg/mL each time. In addition, the MIC (in the assay with Escherichia coli 102; against Enterococcus faecium 800; in assay [6]; in assay [7]) was above 64 µg/mL throughout.
Take `O=C(O)c1cn(C2CC2)c2cc(N3CCNCC3)c(F)cc2c1=O` [Cipro, Ciprofloxacin]: the MIC against Candida albicans 2000 was above 64 µg/mL; in [2], above 16 µg/mL; in assay [5] it was 0.5 µg/mL (≈ 1.51 µM); in the assay on Enterococcus faecium 800, above 16 µg/mL; against Aspergillus niger 624, above 64 µg/mL.
On to `N[C@@H]1CON=C1O` [DCS, D-cycloserine], for which the MIC in the assay with S. aureus USA 300 is 25 µg/mL (≈ 245 µM); in [8], 12.5 µg/mL (≈ 122 µM); in assay [10], 12.5 µg/mL (≈ 122 µM); in assay [11], 12.5 µg/mL (≈ 122 µM); in [12] it was 25 µg/mL (≈ 245 µM); in assay [13], 25 µg/mL (≈ 245 µM). For the same molecule, the MIC in assay [14] is 12.5 µg/mL (≈ 122 µM); in assay [15], 12.5 µg/mL (≈ 122 µM); in [16], 12.5 µg/mL (≈ 122 µM); in [17], 12.5 µg/mL (≈ 122 µM); against S. aureus N315 it was 25 µg/mL (≈ 245 µM); in assay [18] it was 12.5 µg/mL (≈ 122 µM). The “recovery of Alr activity after dialysis” value on Alr [9] is reported as “no increase in activity”. Moreover, the “change of IC50 values with longer pre-incubation time” value on Alr [19] was “a significant reduction in the IC50 values occurs with longer pre-incubation time”.
As for `CC(=O)OC[C@H](N)C(=O)O` [O-acetyl-L- serine, O-acetyl-L-serine], the “change of IC50 values with longer pre-incubation time” value on Alr [19] is given as “no significant reduction in IC50 values”.
Regarding `CCC(=O)[O-].[Na+]` [sodium propionate], the “recovery of Alr activity after dialysis” value at Alr [9] is “recovery of Alr activity”.
